The results in this text go back to the NIST ThermoML archive (doi:10.1016/j.fluid.2013.10.034).

Series [1] in a line: refractive index (Na D-line) (dimensionless). As to conditions: 298.15 K; 101.33 kPa; Liquid; Standard Abbe refractometry.
The conditions of series [2]: 298.15 K; 101.33 kPa; Liquid; Vibrating tube method.

Broadly, the refractive index is the speed of light in vacuum divided by its phase velocity in the sample. The term mass density denotes the mass of a sample divided by its volume.

Numbers after ± are expanded uncertainties.

With `CC(=O)CC(C)C` [4-methylpentan-2-one], the refractive index in series [1] is reported as 1.3936 ± 0.0005. Besides, the mass density in series [2] worked out at 795.94 ± 0.14 kg/m3.
Take `CC(C)O` [propan-2-ol]: in series [1], the refractive index is given as 1.3754 ± 0.0005. The mass density in series [2] stood at 782.7 ± 0.15 kg/m3.
As to `O` [water], the refractive index in series [1] worked out at 1.3325 ± 0.0005.
For `CCCO` [propan-1-ol], the refractive index in series [1] came out at 1.3836 ± 0.0005. The mass density in series [2] amounted to 799.62 ± 0.11 kg/m3.
